In a compilation of properties of binary mixtures (doi:10.1016/j.molliq.2017.03.027):

Assay: xn = mol fraction of the nth substance listed
Settings: 100 kPa

CS(C)=O + CCCC[n+]1ccn(C)c1.O=S(=O)([N-]S(=O)(=O)C(F)(F)F)C(F)(F)F
Settings	speed of sound [m/s]	viscosity [mPa·s]
298.15 K, x1 = 0.0951	1232.7	40.36
298.15 K, x1 = 0.2074	1239.8	33.72
298.15 K, x1 = 0.2885	1246	28.98
298.15 K, x1 = 0.4003	1257.9	22.18
298.15 K, x1 = 0.5026	1269.8	17.18
298.15 K, x1 = 0.7066	1299.3	8.91
298.15 K, x1 = 0.8039	1329	5.97
298.15 K, x1 = 0.9012	1384.8	3.51
298.15 K, x1 = 1	1490.5	2.03
303.15 K, x1 = 0.0951	1221.2	32.94
303.15 K, x1 = 0.2074	1228.1	27.62
303.15 K, x1 = 0.4003	1245.8	18.3
303.15 K, x1 = 0.5903	1267.6	11.04
303.15 K, x1 = 0.7066	1286.2	8.01
303.15 K, x1 = 0.8039	1315.2	5.17
303.15 K, x1 = 0.9012	1369.9	3.15
303.15 K, x1 = 1	1473.6	1.84
308.15 K, x1 = 0.0951	1209.8	26.98
308.15 K, x1 = 0.2074	1216.8	22.9
308.15 K, x1 = 0.2885	1222.7	19.59
308.15 K, x1 = 0.4003	1233.9	15.42
308.15 K, x1 = 0.5026	1245.1	11.71
308.15 K, x1 = 0.7066	1273.2	6.73
308.15 K, x1 = 0.8039	1301.4	4.62
308.15 K, x1 = 0.9012	1355	2.84
313.15 K, x1 = 0.2885	1211.1	17.04
313.15 K, x1 = 0.4003	1221.8	13.35
313.15 K, x1 = 0.5026	1232.9	10.62
313.15 K, x1 = 0.7066	1260.2	5.96
313.15 K, x1 = 0.8039	1287.7	4.17
313.15 K, x1 = 0.9012	1340.2	2.57
318.15 K, x1 = 0.0951	1187.5	19.53
318.15 K, x1 = 0.2074	1194.2	16.67
318.15 K, x1 = 0.2885	1199.7	14.57
318.15 K, x1 = 0.4003	1210.1	11.47
318.15 K, x1 = 0.5026	1220.8	8.84
318.15 K, x1 = 0.5903	1229.8	7.4
318.15 K, x1 = 0.7066	1247.2	5.63
318.15 K, x1 = 0.8039	1274.4	3.71
318.15 K, x1 = 0.9012	1325.4	2.33
318.15 K, x1 = 1	1423.3	1.41
323.15 K, x1 = 0.0951	1176.3	16.81
323.15 K, x1 = 0.2074	1182.9	14.37
323.15 K, x1 = 0.2885	1188.1	12.56
323.15 K, x1 = 0.4003	1198.2	9.96
323.15 K, x1 = 0.5026	1208.5	7.69
323.15 K, x1 = 0.5903	1217.3	6.39
323.15 K, x1 = 0.7066	1233.9	5.01
323.15 K, x1 = 0.8039	1260.4	3.32
323.15 K, x1 = 1	1406.7	1.3

CO + CCCC[n+]1ccn(C)c1.O=S(=O)([N-]S(=O)(=O)C(F)(F)F)C(F)(F)F
x1 = 1
Settings	speed of sound [m/s]	viscosity [mPa·s]
298.15 K	1103.3	0.55
303.15 K	1086.9	0.51
308.15 K	1070.6	0.48
313.15 K	1054.5	0.45
318.15 K	1038.5	0.42
323.15 K	1022.5	0.41
